# Key:
# [1] = test system: B16F1 melanoma tumor in C57BL/6 mice; experiment: Subcutaneous B16F1 melanoma allograft: tumor volume and necrosis; format: in vivo, mouse; settings: 10 mg/kg i.p. days 3, 5, 7
# Procedure: For the subcutaneous melanoma tumor model, suspensions of B16F1 cells (2.5 × 10^5 cells in 100 μL RPMI-1640 medium) were subcutaneously injected into the left flank of different randomized series of syngeneic C57BL/6 mice (n = 8–10 per group), as previously described. Intraperitoneal administrations of peptide (10 mg/kg mouse weight) or controls (physiological serum 0.9% (w/v) NaCl or a scrambled peptide) were performed at days 3, 5 and 7. In human pancreatic carcinoma xenograft experiments, 3 × 10^6 MIA PaCa-2 cells/mouse were implanted subcutaneously into the left flank of BALB/C athymic nude mice, then TAX2 intraperitoneal treatments (10 mg/kg mouse weight) were performed 3 times a week during 4 weeks starting at day 10 after tumor cells inoculation. Tumor volume was determined according to v = 0.5 A × B^2, where A denotes the largest dimension of the tumor and B represents the smallest dimension. At days indicated, mice were sacrificed and tumors were surgically extracted and fixed in 4% paraformaldehyde for further morphologic studies and for magnetic resonance imaging, or frozen for immunohistochemistry. Mice were also weighed every 2–3 days and daily checked for any modification in their behavior. Loss of 15% body weight was an indication for euthanasia as well as severe tumor necrosis, as it was sometimes associated with skin ulceration that would result in loss of body fluid and/or infection.
# Histological analysis of formaldehyde-fixed and paraffin-embedded tumors were performed on hemalun, phloxin and saffron (HPS) stained 3 μm thick sections prepared using routine histological methods. To assess tumor-associated microvessel density (MVD), CD31 immunostaining was performed on 5 μm thick cryosections using biotin-labeled secondary antibody and streptavidin-HRP AEC detection system (Microm Microtech, Francheville, France), followed by hematein counter-coloration. Negative controls were done omitting the primary antibody. The necrotic part relative to total tumor surface for each tumor slice as well as MVD were quantified using ImageJ software.
# Tumors were studied by magnetic resonance imaging (MRI) for visualization of tumor necrosis when the subcutaneous allografts reached a diameter of about 0.8 cm (day 12). […] Image treatment, segmentation, tri-dimensional reconstruction and quantification were performed using ImageJ and Amira 5.4.3 (Visualization Sciences Group, Burlington, MA, USA) software.
# Animals were anesthetized by isoflurane (Forene, Abbott France, Rungis, France) inhalation (3% for induction and 1–1.5% for maintenance) and then after placed in a carbon fibers bed. […] Analysis of reconstructed images and quantification of the vascular network were performed using Amira 5.4.3 software.
# [2] = test system: HUVECs; experiment: Wound-healing migration assay; format: cell-based, human; settings: 100 μM, 9 h, after mitomycin C, mean of 3 in quadruplicate
# Procedure: Figure 2 TAX2 peptide impairs endothelial cell migration and inhibits angiogenesis in vitro and ex vivo A. HUVECs were treated with TAX2 (100 μM) or scrambled peptide (Ctrl, 100 μM). CD47 was immunoprecipitated from total protein lysates using anti-CD47 (clone B6H12) and non-specific IgGs were used as a negative control. Immunocomplexes were then submitted to SDS-PAGE and immunoblotted (IB) using specific TSP-1 and CD47 antibodies. Histogram represents the quantification of co-immunoprecipitated TSP-1 relative to immunoprecipitated CD47. Results are expressed as percentage compared to control (n = 3 separate experiments, t test). B. HUVECs (1 × 10^5 per well) were grown at confluence and then cell proliferation was inhibited by incubating with 10 μg/mL mitomycin C for 2 h. […] Graph represents the quantification of the wounded area. […] Hoechst-stained migrating cells attached on outside surface of the top chamber were photographed (20× objective) and counted. Results are expressed as percentage of migrated cells as compared to control. […] After 8 h incubation, HUVEC tube-like formation was observed on an inverted microscope (40×) and quantification of network total length was done using ImageJ software. […] Data are expressed as the mean ± SE from at least 3 independent experiments, each performed in triplicate. […] The transcriptional level of TSP-1 was assessed by RT-PCR and normalized to β-actin. […]
sequence,measurement,setting,value
"CEVSQLLKGDAC (disulfide) [TAX2, CD47-derived cyclic disulfide dodecapeptide …]",large central necrotic area inside tumor masses (MRI and μCT),[1],large central necrotic area inside tumor masses
same,"median tumor volume, melanoma","[1]; early stages (day 12, caliper), n = 54",No significant modification
same,increase of necrotic area vs control (HPS staining),[1]; p < 0.05,about 3 fold
same,tumor necrosis at day 20,[1]; photographs,substantial tumor necrosis
same,endothelial cell migration rate (wound healing),[2],reduced migration rate
